This note sets out measurements from patent US20070021441A1 (priority 2003, published 2007).

Like-named read-outs stand apart in the source and are kept apart here.

This assay relates to Pyricularia oryzae. It is filed as in vivo. Conditions: individual active compound, protective, inoculated next day, assessed after 6 days.

For `O=C1c2ccccc2C(=O)N1SC(Cl)(Cl)Cl` [IIb, 2-trichloromethylsulfanylisoindole-1,3-dione], the “Efficacy in % of the untreated control” value (16 ppm in the spray liquor) worked out at 0% and the “Efficacy in % of the untreated control” value (63 ppm in the spray liquor) worked out at 8%.

As for `CC1CCN(c2c(-c3c(F)cccc3Cl)c(Cl)nc3ncnn23)CC1` [A], the “Efficacy in % of the untreated control” value (16 ppm in the spray liquor) is given as 35% and the “Efficacy in % of the untreated control” value (63 ppm in the spray liquor) is reported as 61%.

Take `O=C1C2CC=CCC2C(=O)N1SC(Cl)(Cl)Cl` (stereo not shown) [IIa, 2-trichloromethylsulfanyl-3a,4,7,7a-tetrahydroisoindole-1,3-dione]: the “Efficacy in % of the untreated control” value is 0% (16 ppm in the spray liquor) and 35% (63 ppm in the spray liquor).

For the compound `CC1CCN(c2c(-c3c(F)cc(F)cc3F)c(Cl)nc3ncnn23)CC1` [compound I, 5-chloro-7-(4-methylpiperidin-1-yl)-6-(2,4,6-trifluorophenyl)[1,2,4]triazolo[1,5-a]pyrimidine], the “Efficacy in % of the untreated control” value turned out to be 21% (16 ppm in the spray liquor) and 48% (63 ppm in the spray liquor).

As for `C[C@H](Nc1c(-c2c(F)cc(F)cc2F)c(Cl)nc2ncnn12)C(F)(F)F` [B], the “Efficacy in % of the untreated control” value reads like this: (16 ppm in the spray liquor) 48%; (63 ppm in the spray liquor) 61%.
